Results taken from article PMC8320603 (Current Research in Toxicology, 2021).
Like-named read-outs stand apart in the source and are kept apart here.

What was measured:
plasma proteins [1] = assay: Human plasma rapid equilibrium dialysis; format: in vitro ADME; details: pooled human plasma, 4 h of shaking, 10 µM, monitored drug alone
[2] = tested on: cryopreserved pooled human primary hepatocytes
plasma proteins [3] = details: cited from earlier work
CYP3A4 = CYP3A4 (Homo sapiens, UniProt P08684); details: supersomes, 10 µM, at 60 min
CYP1A2 = target: T1, CYP1A2 (Homo sapiens, UniProt P05177); assay: CYP screening of gefitinib and erlotinib with human pooled supersomes; format: in vitro ADME; details: 10 µM, at 60 min
T1 sequence (P05177 1-516): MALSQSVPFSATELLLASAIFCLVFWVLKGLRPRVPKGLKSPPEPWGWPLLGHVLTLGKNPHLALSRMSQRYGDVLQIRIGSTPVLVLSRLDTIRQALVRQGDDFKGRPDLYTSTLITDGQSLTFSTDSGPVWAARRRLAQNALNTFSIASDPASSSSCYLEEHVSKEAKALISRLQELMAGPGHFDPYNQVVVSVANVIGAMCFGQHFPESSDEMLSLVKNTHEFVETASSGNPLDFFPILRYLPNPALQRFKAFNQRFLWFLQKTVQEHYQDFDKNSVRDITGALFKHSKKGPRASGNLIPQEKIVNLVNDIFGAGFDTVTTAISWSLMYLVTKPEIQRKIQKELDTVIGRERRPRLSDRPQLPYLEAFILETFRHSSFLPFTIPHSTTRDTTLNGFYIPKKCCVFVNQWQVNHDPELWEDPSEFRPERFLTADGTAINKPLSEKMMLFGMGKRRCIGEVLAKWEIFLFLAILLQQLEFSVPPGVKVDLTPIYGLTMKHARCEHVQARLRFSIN

CYP2D6 = CYP2D6 (Homo sapiens, UniProt P10635); assay: as above; format: in vitro ADME; details: 10 µM
[4] = 4 h, 10 µM each, monitored drug + Erl
[5] = 4 h, 10 µM each, monitored drug + Gef
[6] = 4 h incubation, 10 µM, monitored drug alone
[7] = 4 h, 10 µM each, monitored drug + Flx
[8] = 4 h, 10 µM each, monitored drug + Flx + Los
[9] = 4 h, 10 µM each, monitored drug + Los

Sequence of CYP2D6 (P10635 whole entry): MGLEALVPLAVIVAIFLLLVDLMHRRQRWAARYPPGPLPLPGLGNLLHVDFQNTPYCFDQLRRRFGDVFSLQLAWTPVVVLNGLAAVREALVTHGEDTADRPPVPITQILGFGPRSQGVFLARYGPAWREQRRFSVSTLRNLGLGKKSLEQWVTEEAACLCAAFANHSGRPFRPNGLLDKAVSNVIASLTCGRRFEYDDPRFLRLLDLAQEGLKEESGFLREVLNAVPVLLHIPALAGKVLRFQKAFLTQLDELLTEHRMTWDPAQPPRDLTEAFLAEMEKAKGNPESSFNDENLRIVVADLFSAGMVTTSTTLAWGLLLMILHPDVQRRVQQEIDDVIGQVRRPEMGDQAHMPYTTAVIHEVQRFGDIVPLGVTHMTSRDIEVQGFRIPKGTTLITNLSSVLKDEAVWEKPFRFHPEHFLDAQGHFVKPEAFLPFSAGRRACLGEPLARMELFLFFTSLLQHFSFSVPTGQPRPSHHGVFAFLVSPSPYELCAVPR
Sequence of CYP3A4 (P08684 whole entry): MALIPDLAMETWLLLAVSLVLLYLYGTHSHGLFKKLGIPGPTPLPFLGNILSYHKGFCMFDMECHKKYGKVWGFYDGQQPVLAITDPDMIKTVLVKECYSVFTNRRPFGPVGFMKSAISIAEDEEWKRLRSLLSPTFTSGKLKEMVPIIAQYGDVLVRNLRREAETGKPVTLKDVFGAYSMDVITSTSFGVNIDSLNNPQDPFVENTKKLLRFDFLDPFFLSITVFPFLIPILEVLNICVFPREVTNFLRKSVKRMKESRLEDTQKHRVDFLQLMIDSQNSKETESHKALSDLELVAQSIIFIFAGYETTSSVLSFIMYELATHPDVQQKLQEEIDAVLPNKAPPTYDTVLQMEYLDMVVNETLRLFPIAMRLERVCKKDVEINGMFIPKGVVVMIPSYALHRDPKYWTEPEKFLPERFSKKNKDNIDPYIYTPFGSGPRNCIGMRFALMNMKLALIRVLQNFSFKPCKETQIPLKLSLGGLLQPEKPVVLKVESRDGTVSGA

Structure (SMILES)	RED Protein Binding, Binding (%) (plasma proteins [1])	Parent remain (%) [2, 4]	Parent remain (%) ([2]; 4 h, 10 µM each, monitored drug + Erl + Flx)	Parent remain (%) [2, 5]	Parent remain (%) ([2]; 4 h, 10 µM each, monitored drug + Gef + Flx)	Parent remain (%) [2, 6]	plasma protein binding, % bound (plasma proteins [3]; literature value ref Sica et al., 2005)	metabolism by CYP3A4 (CYP3A4)	Parent remain (%) [2, 7]	Parent remain (%) [2, 8]	Parent remain (%) [2, 9]	metabolism by CYP1A2 (CYP1A2)	metabolism by CYP2D6 (CYP2D6; supersomes, at 60 min)	plasma protein binding, % bound (plasma proteins [3]; literature value ref Christiansen et al., 2009)	drug remaining (CYP2D6; CYP2D6 supersomes)	plasma protein binding, % bound (plasma proteins [3]; literature value ref Li et al., 2006)	Parent remain (%) ([2]; 4 h, 10 µM each, monitored drug + Erl + Los)	Parent remain (%) ([2]; 4 h, 10 µM each, monitored drug + Gef + Los)	plasma protein binding, % bound (plasma proteins [3]; literature value ref Van Harten 1993)
CCCCc1nc(Cl)c(CO)n1Cc1ccc(-c2ccccc2-c2nn[nH]n2)cc1 [Losartan]	> 95%	89 ± 10%	99 ± 4%	89 ± 4%	112 ± 13%	77 ± 6%	greater than 98%												
C#Cc1cccc(Nc2ncnc3cc(OCCOC)c(OCCOC)cc23)c1 [Erlotinib]	96 ± 0%					62 ± 13%		significantly metabolized	75 ± 3%	86 ± 9%	63 ± 2%	significantly metabolized	significantly metabolized	95%					
COc1cc2ncnc(Nc3ccc(F)c(Cl)c3)c2cc1OCCCN1CCOCC1 [Gefitinib]	> 95%					65 ± 2%			72 ± 10%	96 ± 4%	58 ± 3%				less than 80%	~ 97%			
CNCCC(Oc1ccc(C(F)(F)F)cc1)c1ccccc1 (stereo not drawn) [Fluoxetine]	95 ± 1%	102 ± 1%		87 ± 10%		75 ± 9%											121 ± 3%	122 ± 16%	95%
